Biological target: Human immunodeficiency virus type 1 protease (Human immunodeficiency virus 1, UniProt Q72874)
Assay: Inhibitory activity against HIV-1 protease

| SMILES | IC50 [nM] |
| --- | --- |
| Cc1cc(O)c(C)c(C(=O)N[C@@H](Cc2ccccc2)[C@H](O)C(=O)N2C[C@@H](Cl)C[C@H]2C(=O)NC(C)(C)C)c1 | 1.3 |
| Cc1cccc(C[C@H](NC(=O)c2c(C)ccc(O)c2C)[C@H](O)C(=O)N2C[C@@H](Cl)C[C@H]2C(=O)NC(C)(C)C)c1 | 3.4 |
| CC(C)(C)NC(=O)[C@@H]1C[C@H](Cl)CN1C(=O)[C@@H](O)[C@H](Cc1ccccc1)NC(=O)c1ccccc1I | 14 |
| Cc1ccc(O)c(C)c1C(=O)N[C@@H](Cc1ccccc1)[C@H](O)C(=O)N1C[C@@H](Cl)C[C@H]1C(=O)NC(C)(C)C | 2.5 |
| CC(C)(C)NC(=O)[C@@H]1C[C@H](Cl)CN1C(=O)[C@@H](O)[C@H](Cc1ccccc1)NC(=O)c1cccc(O)c1 | 9 |
| COc1cccc(C(=O)N[C@@H](Cc2ccccc2)[C@H](O)C(=O)N2C[C@@H](Cl)C[C@H]2C(=O)NC(C)(C)C)c1O | 1000 |
| Cc1ccc(C(=O)N[C@@H](Cc2ccc3ccccc3c2)[C@H](O)C(=O)N2C[C@@H](Cl)C[C@H]2C(=O)NC(C)(C)C)c(C)c1O | 3.2 |
| Cc1c(O)cc(F)cc1C(=O)N[C@@H](Cc1cccc(C(F)(F)F)c1)[C@H](O)C(=O)N1C[C@@H](Cl)C[C@H]1C(=O)NC(C)(C)C | 2.1 |
| Cc1ccc(O)c(C)c1C(=O)N[C@@H](Cc1cccc(C(F)(F)F)c1)[C@H](O)C(=O)N1C[C@@H](Cl)C[C@H]1C(=O)NC(C)(C)C | 4.6 |
| CC(C)(C)NC(=O)[C@@H]1C[C@H](Cl)CN1C(=O)[C@@H](O)[C@H](Cc1ccccc1)NC(=O)c1ccc(O)cc1 | 33 |
| CC(C)(C)NC(=O)[C@@H]1C[C@H](Cl)CN1C(=O)[C@@H](O)[C@H](Cc1ccccc1)NC(=O)c1ccccc1 | 26 |
| Cc1ccccc1C[C@H](NC(=O)c1ccc(C)c(O)c1C)[C@H](O)C(=O)N1C[C@@H](Cl)C[C@H]1C(=O)NC(C)(C)C | 49.9 |
| Cc1ccc(O)c(C)c1C(=O)N[C@@H](Cc1ccc2ccccc2c1)[C@H](O)C(=O)N1C[C@@H](Cl)C[C@H]1C(=O)NC(C)(C)C | 2.8 |
| Cc1ccc(C[C@H](NC(=O)c2ccc(C)c(O)c2C)[C@H](O)C(=O)N2C[C@@H](Cl)C[C@H]2C(=O)NC(C)(C)C)cc1 | 8.6 |
| Cc1c(O)cccc1C(=O)N[C@@H](Cc1ccccc1)[C@H](O)C(=O)N1C[C@@H](Cl)C[C@H]1C(=O)NC(C)(C)C | 0.8 |
| Cc1c(N)cccc1C(=O)N[C@@H](Cc1ccccc1)[C@H](O)C(=O)N1C[C@@H](Cl)C[C@H]1C(=O)NC(C)(C)C | 5.4 |
| Cc1cc(O)c(C)c(C(=O)N[C@@H](Cc2ccc3ccccc3c2)[C@H](O)C(=O)N2C[C@@H](Cl)C[C@H]2C(=O)NC(C)(C)C)c1 | 0.8 |
| Cc1ccc(C(=O)N[C@@H](Cc2ccc(C(F)(F)F)cc2)[C@H](O)C(=O)N2C[C@@H](Cl)C[C@H]2C(=O)NC(C)(C)C)c(C)c1O | 6.3 |

| SMILES | IC50 [nM] |
| --- | --- |
| Cc1ccccc1C[C@H](NC(=O)c1c(C)ccc(O)c1C)[C@H](O)C(=O)N1C[C@@H](Cl)C[C@H]1C(=O)NC(C)(C)C | 34.3 |
| CC(C)(C)NC(=O)[C@@H]1C[C@H](Cl)CN1C(=O)[C@@H](O)[C@H](Cc1ccccc1)NC(=O)c1ccccc1O | 1000 |
| CC(C)(C)NC(=O)[C@@H]1C[C@H](Cl)CN1C(=O)[C@@H](O)[C@H](Cc1ccccc1)NC(=O)c1ccccc1Cl | 11 |
| Cc1cccc(C)c1C(=O)N[C@@H](Cc1ccccc1)[C@H](O)C(=O)N1C[C@@H](Cl)C[C@H]1C(=O)NC(C)(C)C | 3.6 |
| Cc1ccc(C[C@H](NC(=O)c2c(C)ccc(O)c2C)[C@H](O)C(=O)N2C[C@@H](Cl)C[C@H]2C(=O)NC(C)(C)C)cc1 | 3.6 |
| Cc1cc(O)c(C)c(C(=O)N[C@@H](Cc2cccc(C(F)(F)F)c2)[C@H](O)C(=O)N2C[C@@H](Cl)C[C@H]2C(=O)NC(C)(C)C)c1 | 1.9 |
| Cc1c(O)cc(F)cc1C(=O)N[C@@H](Cc1ccc2ccccc2c1)[C@H](O)C(=O)N1C[C@@H](Cl)C[C@H]1C(=O)NC(C)(C)C | 1.2 |
| Cc1cc(O)c(C)c(C(=O)N[C@@H](Cc2ccc(-c3ccccc3)cc2)[C@H](O)C(=O)N2C[C@@H](Cl)C[C@H]2C(=O)NC(C)(C)C)c1 | 1.3 |
| Cc1ccc(C(=O)N[C@@H](Cc2ccccc2)[C@H](O)C(=O)N2C[C@@H](Cl)C[C@H]2C(=O)NC(C)(C)C)c(C)c1O | 8.2 |
| Cc1c(O)cc(F)cc1C(=O)N[C@@H](Cc1ccccc1)[C@H](O)C(=O)N1C[C@@H](Cl)C[C@H]1C(=O)NC(C)(C)C | 1.7 |
| Cc1cc(O)c(C)c(C(=O)N[C@@H](Cc2cc(F)cc(F)c2)[C@H](O)C(=O)N2C[C@@H](Cl)C[C@H]2C(=O)NC(C)(C)C)c1 | 1.2 |
| CC(C)(C)NC(=O)[C@@H]1C[C@H](Cl)CN1C(=O)[C@@H](O)[C@H](Cc1ccccc1)NC(=O)c1cccc(O)c1Br | 1.5 |
| Cc1ccc(C(=O)N[C@@H](Cc2cccc(C(F)(F)F)c2)[C@H](O)C(=O)N2C[C@@H](Cl)C[C@H]2C(=O)NC(C)(C)C)c(C)c1O | 3.5 |
| CC(C)(C)NC(=O)[C@@H]1C[C@H](Cl)CN1C(=O)[C@@H](O)[C@H](Cc1ccccc1)NC(=O)c1ccccc1Br | 12 |
| Cc1cccc(C[C@H](NC(=O)c2ccc(C)c(O)c2C)[C@H](O)C(=O)N2C[C@@H](Cl)C[C@H]2C(=O)NC(C)(C)C)c1 | 2.5 |
| CC(C)(C)NC(=O)[C@@H]1C[C@H](Cl)CN1C(=O)[C@@H](O)[C@H](Cc1ccccc1)NC(=O)c1ccccc1N | 39 |
| Cc1ccc(O)c(C)c1C(=O)N[C@@H](Cc1ccc(C(F)(F)F)cc1)[C@H](O)C(=O)N1C[C@@H](Cl)C[C@H]1C(=O)NC(C)(C)C | 3.9 |
| Cc1cccc(C[C@H](NC(=O)c2cc(C)cc(O)c2C)[C@H](O)C(=O)N2C[C@@H](Cl)C[C@H]2C(=O)NC(C)(C)C)c1 | 1.3 |

From ChEMBL document CHEMBL1135444, “Elucidating the inhibiting mode of AHPBA derivatives against HIV-1 protease and building predictive 3D-QSAR models” (J Med Chem, 2002)
